Experimental data published in the supplement of paper PMC8372320.

assay: photocatalytic hydrogen evolution rate (per 5 mg catalyst); higher = more photocatalytic H2 evolution; extreme values may be limits of the assay; conditions: catalyst mass (mg): 5; Pt cocatalyst (wt%): 3; sacrificial medium: triethylamine/methanol/water 1:1:1
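Further: aromatic molecules in triethylamine/methanol/water with Pt photoreduced in situ, irradiated 3 h under a 1 sun AM 1.5G solar simulator (350–1000 nm), H2 quantified by headspace gas chromatography; listed molecule itself used as the photocatalyst at 5 mg per vial.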

| SMILES | photocatalytic hydrogen evolution rate [µmol/h] |
| --- | --- |
| O=Cc1ccc(-c2nc(-c3ccc(C=O)cc3)nc(-c3ccc(C=O)cc3)n2)cc1 | 0.298 |
| Nc1ccc(Br)cc1 | 0 |
| N#Cc1c(Cl)c(Cl)c(C#N)c(Cl)c1Cl | 1.44 |
| N#Cc1cc(Br)cs1 | 0 |
| O=Cc1ccc(-c2cncnc2)cc1 | 2.58 |
| O=Cc1c(F)c(F)c(C=O)c(F)c1F | 0.177 |
| N#Cc1ccc(-c2ccc(C#N)cc2)cc1 | 0 |
| CCc1c(CBr)c(CC)c(CBr)c(CC)c1CBr | 0 |
| Brc1ccc(OCC2CCCCO2)c(Br)c1 (stereo not given) | 0 |
| O=Cc1cc(O)c(O)cc1O | 0 |
| O=Cc1ccc(-n2ccnc2)cc1 | 1.5 |
| C#Cc1ccccc1C#N | 0 |
| Nc1c(F)c(F)c(N)c(F)c1F | 0 |
| Nc1ccc(-c2ccc(-c3ccc(N)cc3)cc2)cc1 | 0 |
| O=Cc1cc(F)cc(Br)c1 | 0.0795 |
| N#Cc1ccc(-c2ccc(C#N)nc2)cn1 | 0.0601 |
| O=C(O)c1cc(C(=O)O)cc(-c2cc(C(=O)O)cc(C(=O)O)c2)c1 | 0 |
| c1cc(-c2nc(-c3ccncc3)nc(-c3ccncc3)n2)ccn1 | 0 |
| Cc1cc(-c2ccc(N)c(C)c2)ccc1N | 0 |
| N#Cc1ccc(Br)cn1 | 0 |
| O=Cc1ccc(C=O)s1 | 0.129 |
| C(=C\c1ccccc1)/c1ccccc1 | 0 |
| O=Cc1cc(C=O)c(O)c(C=O)c1 | 10.9 |
| N#CC1=C(C#N)SC(C#N)=C(C#N)S1 | 0 |
| Fc1c(F)c(F)c(-c2c(F)c(F)c(F)c(F)c2F)c(F)c1F | 0 |
| O=Cc1ccc(-c2ccc(C=O)s2)s1 | 1.18 |

| SMILES | photocatalytic hydrogen evolution rate [µmol/h] |
| --- | --- |
| c1ccc2cc3cc4ccccc4cc3cc2c1 | 0.162 |
| N#Cc1csc(Br)n1 | 0 |
| O=Cc1ccccc1P(c1ccccc1)c1ccccc1 | 0.079 |
| COc1ccc(OC)c(C=O)c1 | 10.9 |
| N#Cc1cccnc1-c1ncccc1C#N | 0 |
| Oc1cccc2cccnc12 | 0 |
| Nc1ccc(N)c(S(=O)(=O)O)c1 | 0 |
| c1ccc(-c2nc(-c3ccccc3)nc(-c3ccc(-c4ccc(-c5nc(-c6ccccc6)nc(-c6ccccc6)n5)cc4)cc3)n2)cc1 | 0 |
| Nc1cc(C(=O)O)ccc1C(=O)O | 0.109 |
| O=Cc1ccc(Cl)cc1 | 0.964 |
| N#CCc1ccccc1C#N | 0 |
| Cc1cc(C)cc([N+](=O)[O-])c1 | 0 |
| O=Cc1ccc(Br)cc1 | 0.624 |
| c1ccc(C(c2ccccc2)c2ccccc2)cc1 | 0 |
| N#Cc1c(-n2c3ccccc3c3ccccc32)c(C#N)c(-n2c3ccccc3c3ccccc32)c(-n2c3ccccc3c3ccccc32)c1-n1c2ccccc2c2ccccc21 | 20.5 |
| OC(c1ccccc1)c1ccccc1 | 0 |
| N#Cc1cncc(-c2cncc(C#N)c2)c1 | 0 |
| COc1cc(C=O)ccc1O | 0.0183 |
| N#Cc1cccc(C#N)n1 | 0 |
| CC1(C)OB(c2ccc(B3OC(C)(C)C(C)(C)O3)cc2)OC1(C)C | 0 |
| N#CCc1ccc(C#N)cc1 | 0 |
| N#Cc1ccc(C=O)s1 | 0.0384 |
| Brc1ccc(C#Cc2ccc(Br)cc2)cc1 | 0 |
| N#Cc1ccc(Cc2ccc(C#N)cc2)cc1 | 0 |
| O=Cc1cccc(C(=O)O)c1 | 1.06 |
| O=Cc1ccc(Br)nc1 | 0.297 |

| SMILES | photocatalytic hydrogen evolution rate [µmol/h] |
| --- | --- |
| N#Cc1cc(Br)ccn1 | 0 |
| N#Cc1cc(O)cc(C#N)c1 | 2.14 |
| N#CCc1ccc(-c2ccc(CC#N)cn2)nc1 | 0.0108 |
| N#Cc1nc2c3nc(C#N)c(C#N)nc3c3nc(C#N)c(C#N)nc3c2nc1C#N | 0 |
| c1ccc(N(c2ccccc2)c2cc(N(c3ccccc3)c3ccccc3)cc(N(c3ccccc3)c3ccccc3)c2)cc1 | 0 |
| O=Cc1ccc(Br)cn1 | 0 |
| Nc1cccc(N)c1 | 0 |
| N#Cc1nc(N)c(N)nc1C#N | 0 |
| O=Cc1ccc(N2CCCCC2)cc1 | 0.431 |
| COC(=O)c1ccc(B(O)O)cc1 | 0.0394 |
| O=C(O)c1ccc(-c2ccc(-c3cc(-c4ccc(-c5ccc(C(=O)O)cc5)cc4)cc(-c4ccc(-c5ccc(C(=O)O)cc5)cc4)c3)cc2)cc1 | 0 |
| O=Cc1cccc2cccnc12 | 1.45 |
| Brc1c2c(c(Br)c3nsnc13)N=S=N2 | 0 |
| c1ccc(N(c2ccccc2)c2ccccc2)cc1 | 0 |
| O=C1C=CC(=O)c2ccccc21 | 0 |
| N#Cc1cccnc1C#N | 0 |
| O=Cc1ccc(Oc2ccc(C=O)cc2)cc1 | 2.42 |
| N#Cc1ccnc(Br)c1 | 0.0187 |
| FC(F)(F)c1cc(Br)ccc1Br | 0 |
| Oc1ccc(O)cc1 | 0 |
| O=Cc1ccc(F)c(O)c1 | 0.000356 |
| c1ccc2sccc2c1 | 0 |
| CC(=O)c1ccc(C#N)cc1 | 5.7 |
| O=[N+]([O-])c1cc([N+](=O)[O-])c(F)cc1F | 0 |

Now from value to compound:

| photocatalytic hydrogen evolution rate [µmol/h] | SMILES |
| --- | --- |
| 0 | Fc1cc(Br)c(Br)cc1F |
| 0.0076 | Cc1cc(C=O)cc(C)c1O |
| 0 | Brc1cc(Br)cc(-c2ccccc2)c1 |
| 0 | O=C(O)c1ccc2cc(C(=O)O)ccc2c1 |
| 2.41 | O=C(c1ccccc1)c1ccncc1 |
| 0 | CCCCCCC1(CCCCCC)c2cc(Br)ccc2-c2ccc(Br)cc21 |
| 1.37 | Brc1ccc(Br)c2nccnc12 |
| 0.896 | O=Cc1ccc(O)cc1O |
| 0.957 | O=Cc1cc(Br)ccc1Br |
| 0 | Cc1c(C)c(Br)c(C)c(C)c1Br |
| 0 | O=Cc1cc(O)c(C=O)cc1O |
| 0 | O=C(O)c1ccc(N=Nc2ccccc2)cc1 |
| 0 | O=Cc1cc(O)ccc1O |
| 0 | Brc1ccc(-c2cc(-c3ccc(Br)cc3)cc(-c3ccc(Br)cc3)c2)cc1 |
| 8.34 | N#Cc1ccc(-c2ccc(C#N)c(O)c2)cc1 |
| 0.387 | CC(=O)c1ccc(CCc2ccc(C(C)=O)cc2)cc1 |
| 0.121 | CC(C)(C)c1cc2ccc3c(Br)cc(Br)c4ccc(c1)c2c34 |
| 1.17 | O=Cc1ccc(N(c2ccccc2)c2ccc(C=O)cc2)cc1 |
| 0.0122 | O=Cc1cccc(-c2c(O)ccc3ccccc23)c1 |
| 0 | O=C1C=CC(=O)c2cc3ccccc3cc21 |
| 0 | Cc1c(C2(c3cc(Br)c(O)c(Br)c3C)OS(=O)(=O)c3ccccc32)cc(Br)c(O)c1Br |
| 0 | O=C(O)Cc1ccc(Br)cc1Br |
| 0.0732 | Nc1cc(Br)ccc1-c1ccc(Br)cc1N |
| 0 | O=c1oc(=O)c2cc3c(=O)oc(=O)c3cc12 |
| 0 | c1ccc(-c2ccc(-c3ccc(-c4ccc(-c5ccccc5)cc4)cc3)cc2)cc1 |

| photocatalytic hydrogen evolution rate [µmol/h] | SMILES |
| --- | --- |
| 3.67 | CC(=O)c1ccc(-c2ccc(C(C)=O)cc2)cc1 |
| 0 | c1ccc2c(c1)CCc1ccccc1N2 |
| 20.2 | O=C1OC2(c3ccc(O)cc3Oc3cc(O)ccc32)c2ccccc21 |
| 0 | CC(O)c1ccc2ccccc2c1 (stereo not given) |
| 0 | O=Cc1ccc(O)c(O)c1O |
| 0 | O=C1C(=O)c2cc(Br)ccc2-c2ccc(Br)cc21 |
| 0 | COc1cc(Br)c(OC)cc1Br |
| 0.022 | c1ccc2c(c1)c1ccccc1c1ccccc21 |
| 0.0425 | O=Cc1ccc(S(=O)(=O)c2ccccc2)cc1 |
| 2.68 | O=C1CCc2cccc(O)c21 |
| 0 | Brc1ccc(-c2ccc(-c3ccc(Br)cc3)cc2)cc1 |
| 0.009 | O=S1(=O)c2ccc(Br)cc2-c2cc(Br)ccc21 |
| 0.0623 | COC(=O)c1ccc2cc(C(=O)OC)ccc2c1 |
| 2.56 | O=C1c2ccccc2-c2ccccc21 |
| 0 | Brc1cc(Br)c(Br)cc1Br |
| 0.0539 | N[C@@H](Cc1ccccc1)C(=O)O |
| 0 | CC1(C)OB(c2c3ccccc3c(B3OC(C)(C)C(C)(C)O3)c3ccccc23)OC1(C)C |
| 0 | O=C1c2cccc(O)c2C(=O)c2cccc(O)c21 |
| 12.3 | CCCCCCCCCCCCCCCCCCn1c(=O)c2ccc3sc4ccccc4c4ccc(c1=O)c2c34 |
| 0 | c1ccc2cc3ccccc3cc2c1 |
| 0 | Fc1ccc(-c2nc(-c3ccccc3)nc(-c3ccccc3)n2)cc1 |
| 0 | O=C(O)c1c2ccccc2c(C(=O)O)c2ccccc12 |
| 9.21 | Cn1c2ccc(Br)cc2c(=O)c2cc(Br)ccc21 |
| 0 | O=C1c2cccc3cccc(c23)C(=O)N1O |
